According to ChEMBL document CHEMBL1201862, “PubChem BioAssay data set” (2004):
The source made the active and inactive calls.

Assays:
Hexokinase-1 = biological target: T1, Hexokinase-1 (Homo sapiens, UniProt P19367); assay: HK1 enzyme activation by HKDC1 hits – biochemical, selectivity assay for HKDC1 activator project, dose response (AID 504762); format: functional
T1 sequence (P19367 whole entry): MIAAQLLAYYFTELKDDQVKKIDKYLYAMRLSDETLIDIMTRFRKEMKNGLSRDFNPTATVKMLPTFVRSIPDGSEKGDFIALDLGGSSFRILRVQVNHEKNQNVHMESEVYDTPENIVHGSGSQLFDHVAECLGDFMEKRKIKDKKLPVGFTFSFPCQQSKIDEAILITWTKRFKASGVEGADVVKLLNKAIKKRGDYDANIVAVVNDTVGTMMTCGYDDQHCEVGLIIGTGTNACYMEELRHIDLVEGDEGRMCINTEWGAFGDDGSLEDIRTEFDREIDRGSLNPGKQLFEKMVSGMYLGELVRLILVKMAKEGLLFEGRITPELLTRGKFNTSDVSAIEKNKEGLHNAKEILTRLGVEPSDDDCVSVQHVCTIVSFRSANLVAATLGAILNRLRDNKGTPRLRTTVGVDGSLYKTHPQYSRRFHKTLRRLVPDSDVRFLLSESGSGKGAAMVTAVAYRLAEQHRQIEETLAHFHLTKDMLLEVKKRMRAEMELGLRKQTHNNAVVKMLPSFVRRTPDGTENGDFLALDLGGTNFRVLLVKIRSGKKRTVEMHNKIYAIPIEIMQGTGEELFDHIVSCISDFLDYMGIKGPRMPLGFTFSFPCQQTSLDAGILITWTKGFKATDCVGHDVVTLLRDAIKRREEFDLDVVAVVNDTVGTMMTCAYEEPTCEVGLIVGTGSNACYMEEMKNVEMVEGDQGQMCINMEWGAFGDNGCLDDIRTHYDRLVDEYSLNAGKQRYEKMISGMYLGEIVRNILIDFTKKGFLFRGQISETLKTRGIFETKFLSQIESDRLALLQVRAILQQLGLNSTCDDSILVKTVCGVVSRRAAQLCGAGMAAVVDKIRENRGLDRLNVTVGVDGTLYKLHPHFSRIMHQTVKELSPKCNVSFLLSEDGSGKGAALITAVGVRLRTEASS

[1] = biological target: ATP-dependent molecular chaperone HSP82 (Candida albicans (strain WO-1) (Yeast), UniProt C4YTQ8); assay: steroid-induced GRE reporter decrease in yeast – S. cerevisiae, luminescence, Hsp90 inhibitor project, dose response (AID 2400); format: functional, cell-based;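 note: beta-galactosidase luminescence from glucocorticoid response element reporter as proxy for Hsp90 function; inhibitor potency where signal loss means Hsp90 inhibition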
Chain of ATP-dependent molecular chaperone HSP82 (C4YTQ8 whole entry): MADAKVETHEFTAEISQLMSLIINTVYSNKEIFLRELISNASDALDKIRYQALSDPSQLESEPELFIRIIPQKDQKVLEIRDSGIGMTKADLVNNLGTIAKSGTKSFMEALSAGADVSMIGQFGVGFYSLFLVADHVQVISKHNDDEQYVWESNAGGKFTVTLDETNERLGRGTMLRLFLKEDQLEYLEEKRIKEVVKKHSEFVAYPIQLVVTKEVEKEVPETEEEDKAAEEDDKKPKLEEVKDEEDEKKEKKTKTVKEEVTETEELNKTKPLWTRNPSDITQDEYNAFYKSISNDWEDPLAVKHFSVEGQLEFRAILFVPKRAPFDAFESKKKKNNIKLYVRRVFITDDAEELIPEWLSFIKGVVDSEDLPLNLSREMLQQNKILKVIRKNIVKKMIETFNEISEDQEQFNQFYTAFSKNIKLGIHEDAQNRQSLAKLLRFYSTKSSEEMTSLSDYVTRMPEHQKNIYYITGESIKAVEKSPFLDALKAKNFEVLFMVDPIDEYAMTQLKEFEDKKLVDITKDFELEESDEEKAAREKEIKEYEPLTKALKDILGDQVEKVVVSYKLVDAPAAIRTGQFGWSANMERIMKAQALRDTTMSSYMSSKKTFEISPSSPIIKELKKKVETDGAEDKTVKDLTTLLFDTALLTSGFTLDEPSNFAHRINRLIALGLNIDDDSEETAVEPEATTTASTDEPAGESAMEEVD

[2] = biological target: T2, Short transient receptor potential channel 4 (Mus musculus, UniProt Q9QUQ5); assay: calcium entry via TRPC4 opening agents – cell-based, HEK293 TRPC4/mu-opioid, Fluo-4 calcium, dose response (AID 434937); format: functional
T2 sequence (Q9QUQ5 whole entry): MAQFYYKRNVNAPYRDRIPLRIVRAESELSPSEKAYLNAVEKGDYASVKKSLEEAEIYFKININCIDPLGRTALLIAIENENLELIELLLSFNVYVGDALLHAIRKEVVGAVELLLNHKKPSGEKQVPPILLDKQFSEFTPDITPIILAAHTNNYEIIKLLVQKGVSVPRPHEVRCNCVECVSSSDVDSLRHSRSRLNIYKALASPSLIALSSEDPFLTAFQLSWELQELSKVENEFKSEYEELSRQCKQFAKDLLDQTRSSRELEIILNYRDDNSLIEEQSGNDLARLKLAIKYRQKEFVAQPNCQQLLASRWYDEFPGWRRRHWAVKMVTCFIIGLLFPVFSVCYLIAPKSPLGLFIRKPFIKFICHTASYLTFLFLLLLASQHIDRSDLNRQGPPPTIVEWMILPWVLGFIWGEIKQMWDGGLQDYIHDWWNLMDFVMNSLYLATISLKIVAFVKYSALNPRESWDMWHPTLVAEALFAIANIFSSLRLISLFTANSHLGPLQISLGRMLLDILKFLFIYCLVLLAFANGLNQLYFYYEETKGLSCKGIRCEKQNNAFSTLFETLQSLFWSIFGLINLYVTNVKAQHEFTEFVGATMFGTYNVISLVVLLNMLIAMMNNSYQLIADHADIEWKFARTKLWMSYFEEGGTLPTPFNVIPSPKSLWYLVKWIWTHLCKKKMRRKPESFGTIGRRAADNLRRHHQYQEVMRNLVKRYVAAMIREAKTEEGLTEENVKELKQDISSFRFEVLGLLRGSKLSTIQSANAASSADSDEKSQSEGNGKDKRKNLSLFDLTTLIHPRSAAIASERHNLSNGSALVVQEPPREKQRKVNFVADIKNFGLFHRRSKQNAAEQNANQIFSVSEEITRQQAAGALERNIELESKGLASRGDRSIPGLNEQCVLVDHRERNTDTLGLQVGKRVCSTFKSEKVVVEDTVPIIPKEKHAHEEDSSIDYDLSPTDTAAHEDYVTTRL

Insulin-degrading enzyme = biological target: T3, Insulin-degrading enzyme (Homo sapiens, UniProt P14735); assay: recombinant IDE activation, cell-free – biochemical, fluorescence polarization, counter-screen for IDE activator project, dose response (AID 588681)
T3 sequence (P14735 whole entry): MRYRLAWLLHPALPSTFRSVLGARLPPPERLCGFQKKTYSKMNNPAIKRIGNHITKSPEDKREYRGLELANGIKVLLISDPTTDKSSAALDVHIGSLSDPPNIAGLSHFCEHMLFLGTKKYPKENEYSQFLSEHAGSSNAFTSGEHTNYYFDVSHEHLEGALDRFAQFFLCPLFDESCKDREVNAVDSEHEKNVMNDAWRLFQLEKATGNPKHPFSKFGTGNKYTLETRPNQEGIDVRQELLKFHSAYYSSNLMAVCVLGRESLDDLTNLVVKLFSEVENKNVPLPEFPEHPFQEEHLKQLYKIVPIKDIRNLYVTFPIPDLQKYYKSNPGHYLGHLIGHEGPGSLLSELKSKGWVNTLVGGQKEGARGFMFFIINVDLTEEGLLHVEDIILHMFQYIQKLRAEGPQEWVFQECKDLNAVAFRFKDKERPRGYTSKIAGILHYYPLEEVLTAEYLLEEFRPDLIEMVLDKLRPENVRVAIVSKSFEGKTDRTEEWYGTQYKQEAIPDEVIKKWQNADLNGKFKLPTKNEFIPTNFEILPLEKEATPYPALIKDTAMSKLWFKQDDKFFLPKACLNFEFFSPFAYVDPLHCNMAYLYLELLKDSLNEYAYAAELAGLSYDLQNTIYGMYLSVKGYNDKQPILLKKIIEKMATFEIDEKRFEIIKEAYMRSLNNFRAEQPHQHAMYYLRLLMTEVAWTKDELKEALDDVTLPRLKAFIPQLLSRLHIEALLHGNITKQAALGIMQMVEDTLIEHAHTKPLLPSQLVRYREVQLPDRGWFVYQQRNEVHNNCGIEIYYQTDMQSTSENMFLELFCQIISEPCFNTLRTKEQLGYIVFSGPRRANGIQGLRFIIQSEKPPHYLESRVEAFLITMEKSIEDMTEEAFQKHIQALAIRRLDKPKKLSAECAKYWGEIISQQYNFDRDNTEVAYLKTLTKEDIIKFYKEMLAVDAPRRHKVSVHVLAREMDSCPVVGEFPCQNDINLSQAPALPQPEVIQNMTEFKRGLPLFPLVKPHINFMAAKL

SMILES	EC50 (Hexokinase-1)	EC50 [1]	EC50 [2]	EC50 (Insulin-degrading enzyme)
CCN1C(=Cc2sc3ccccc3[n+]2C)C=Cc2cccc(C)c21	> 80 µM (inactive)	37.3 µM (active)	–	–
CNC[C@H](Cc1ccccc1)NC[C@@H](Cc1cccc2ccccc12)NCCc1ccc(C)cc1	–	–	9.44 µM (active)	> 54.7 µM (inactive)
